Experimental data: patent publication US20110195030A1, “NANOPARTICLE COMPOSITIONS COMPRISING LIQUID OIL CORES” (The University of North Carolina at Chapel Hill, priority 2008, published 2011)
In brackets after ≈: the same amount, converted by molar mass.

Columns and labels:
[1] = reported in literature; cited from earlier work
Solubility of paclitaxel = format: physicochemical; settings: PBS with 0.1% Tween 80 (release medium), aqueous with cosolvent or surfactant or cyclodextrin, thermodynamic from solid; PBS with 0.1% Tween 80, room temperature, mean ± SD, n = 3
[2] = In-vitro release of paclitaxel by dialysis method; format: physicochemical; settings: 37° C., PBS with 0.1% Tween 80
Method: PX release studies (n=4) were completed at 37° C. by the dialysis method using PBS with 0.1% Tween 80 as release medium. Before release studies, the solubility of PX in release medium was measured. Briefly, extra amounts of paclitaxel were added into 2 mL of release medium until saturation was attained. After centrifuge, the concentration of PX in the supernatant was determined by HPLC as described above. For release studies, one milliliter (1 mL) of PX G78 NPs was purified with a Microcon Y-100 and re-suspended into 1 mL D.I. water. The concentration of PX in re-suspended PX G78 NPs was measured by HPLC as described above. Eight hundred microliters of purified PX G78 NPs, PX BTM NPs and reconstituted lyo BTM NPs were placed into a regenerated cellulose dialysis membrane (MWCO 8000 Da) submerged in 40 mL PBS with 0.1% Tween 80, respectively, and then shaken in a water bath at a speed of 150 rpm at 37° C. Free PX also was used as a control. At predetermined times, 200 μL aliquots were taken from outside of the dialysis membrane, and replaced with 200 μL fresh media. PX was measured by HPLC as described above. Mass balance was confirmed by measuring PX concentration inside the dialysis membranes after 72 h. In addition, the particle sizes of PX NPs inside the dialysis membranes were measured when release studies were terminated (at 72 h).

solubility (Solubility of paclitaxel): 10.8 ± 0.3 µg/mL (≈ 12.6 µM) | time to complete release [2]: ≤ 4 h
SMILES: CC(=O)O[C@H]1C(=O)[C@@]2(C)[C@H]([C@H](OC(=O)c3ccccc3)[C@]3(O)C[C@H](OC(=O)[C@H](O)[C@@H](NC(=O)c4ccccc4)c4ccccc4)C(C)=C1C3(C)C)[C@]1(OC(C)=O)CO[C@@H]1C[C@@H]2O [Paclitaxel]
aqueous solubility [1]: 0.7 to 30 µg/mL
